Values of other authors in patent US20070087333A1, “Method to detect antigen-specific cytolytic activity” (Erasmus Universiteit Rotterdam, priority 2004, published 2007).

Columns and labels:
TCC-C10 CTL clone = settings: NP418-426 epitope variants, 51Cr-release assay, reference [2]; read-out: EC50 value of the peptide variant (functional avidity)
TCC3180 CTL clone = settings: NP418-426 epitope variants, 51Cr-release assay, reference [2]; for EC50: read-out: EC50 value of the peptide variant (functional avidity)

**Q.** For “NP01: HLA-B*3501 epitope NP418-426 peptide variant of influenza NP strain A/NL/18/94 (LPFEKSTVM; Derived from influenza virus genes encoding NP strain A/NL/18/94 (NP01))”, which EC50 (TCC-C10 CTL clone) is on record?
**A.** Its EC50 is about 0.8 nM.

**Q.** And the EC50 (TCC3180 CTL clone)?
**A.** The EC50 was 0.5 nM.

**Q.** Which results are given for “NP03: HLA-B*3501 epitope NP418-426 peptide variant of influenza NP strain A/PR/8/34 (LPFDRTTIM; Derived from influenza virus genes encoding NP strain A/PR/8/34 (NP03))”?
**A.** EC50 (TCC-C10 CTL clone): > 10000 nM; EC50 value of the peptide variant (functional avidity) (TCC3180 CTL clone): l lOO

**Q.** Which EC50 (TCC-C10 CTL clone) does the source give for “NP02: HLA-B*3501 epitope NP418-426 peptide variant of influenza NP strain A/HK/2/68 (LPFDKPTIM; Derived from influenza virus genes encoding NP strain A/HK/2/68 (NP02))” here?
**A.** The EC50 was over 5000 nM.

**Q.** And the EC50 (TCC3180 CTL clone)?
**A.** The EC50 was 26 nM.
